Results from article PMC12649483, “Novel Chalcone Derivatives as Anti-Leishmania infantum Agents with Potential Synergistic Activity and In Silico Insights” (Antibiotics, 2025).
pIC50: −log10 of the molar value. Entries after “also recorded” stand apart in the source; their conditions may differ.

Key:
human erythrocytes = assay: Hemolytic activity in human erythrocytes; assay type: cell-based; details: for hemolytic activity (in words): tested concentrations 100–0.78 µM
Procedure: The hemolytic activity of the compounds 4a–b was evaluated using an adaptation of the method described by Van de Ven (2012). Blood samples were adjusted to a 5% erythrocyte concentration, taking into account the hematocrit differences between males (40–50% ≈ 45%) and females (35–45% ≈ 40%). Compounds were added to 96-well plates at serial dilutions (100 to 0.78 µM), while AmB was tested at concentrations ranging from 400 to 3.12 µM as a reference. After 1 h of incubation at 37 °C in a 5% CO2 incubator, 100 µL of phosphate-buffered saline (PBS) was added to each well. Plates were centrifuged (112× g, 10 min, 25 °C), and supernatants were transferred to a mirrored 96-well plate. Hemoglobin release, reflecting erythrocyte lysis, was quantified by measuring absorbance at 540 nm. The assay was performed in three independent experiments, with results expressed as mean hemolytic concentration (HC50). Ultrapure water (Direct-Q UV, Guyancourt, France) served as the positive control (100% hemolysis).

human PBMCs = assay: Cytotoxicity (MTT) in peripheral blood mononuclear cells; assay type: cell-based
Procedure: (§1) For the PBMCs assay, blood samples from three healthy volunteers were processed using Ficoll density gradient centrifugation (980× g) for 20 min at 25 °C. The PBMCs layer was collected, washed with sterile 1× PBS (300× g, 10 min, 4 °C), and resuspended in RPMI medium (Sigma-Aldrich) supplemented with 10% FBS and 1% antibiotic. Adjusted PBMCs were plated in 96-well plates and incubated with serial dilutions of the compounds (1000 to 7.8 µM) and AmB (100 to 0.78 µM) for 24 h (37 °C, 5% CO2). MTT was then added for 4 h, followed by centrifugation (300× g, 10 min) at 4 °C, supernatant removal, and DMSO addition for spectrophotometric reading at 540 nm.

[1] = as above; assay type: cell-based, human; details: human, peripheral blood mononuclear cells (PBMCs), 24 h; for CC50 at 24 h: PBMCs, MTT; for viability at 24 h, 250 µM: at 250 μM; for viability at 24 h, 500 µM: at 500 μM
Procedure: as §1

[2] = test system: L. infantum promastigotes; assay: In vitro leishmanicidal activity (MTT) in promastigote forms; assay type: cell-based, Leishmania infantum; details: for pIC50: 72 h treatment, MTT
Procedure: (§2) Promastigote forms of L. infantum [IOC/L0579 (MHOM/BR/1974/PP75)] were cultured in Schneider’s medium (pH 7.0), supplemented with 20% fetal bovine serum (FBS), 1% human male urine, and 1% antibiotic solution (penicillin 200 U/mL and streptomycin 0.1 mg/mL), and maintained at 26 ± 1 °C (B.O.D SL 200—SOLAB, Piracicaba, SP, BR). The generation of extracellular axenic amastigote forms of L. infantum was based on protocols previously described by Debrabant et al. (2004), with modifications that included the use of Schneider’s medium adjusted to pH 5.5 and incubation at 37 °C (CO2 Series 3517-2, Cornelius, OR, USA).
The antileishmanial activity of compounds against metacyclic promastigote populations was assessed using the MTT (ACROS, Livingston, NJ, USA) assay for cell viability analysis. During testing, L. infantum (IOC/L0579) cultures were maintained in vitro in supplemented Schneider’s (Sigma-Aldrich, St. Louis, MO, USA) medium (pH 7.0) at 26 ± 1 °C in a biological oxygen demand (BOD) incubator.
(§3) In 96-well plates, initial screening was performed with serial dilutions (400 to 3.12 μM) of compounds 3a–c and 4a–c in duplicate. […] AmB was used as a positive control due to its established leishmanicidal activity, tested at concentrations ranging from 10 to 0.078 μM. Following 72 h-treatment of promastigotes and 24 h-treatment of amastigotes (accounting for the stationary phase culture characteristics), MTT was added for 4 h, followed by overnight incubation with sodium dodecyl sulfate (SDS) for spectrophotometric (Biotek model ELx800, Winooski, VT, USA) reading at 540 nm.

[3] = test system: L. infantum axenic amastigotes; assay: Synergistic activity of 4b with AmB (Chou-Talalay) against axenic amastigotes; assay type: cell-based, Leishmania infantum; details: of each drug within the 1:5 AmB:4b combination
Procedure: The nature of the drug interaction (synergistic, additive, or antagonistic) was evaluated using the Chou–Talalay method implemented in CompuSyn software (ComboSyn Incorporated, version 1.0.1, 2006–2023). This approach calculates the Combination Index (CI) based on dose–response data fitted to the median-effect equation, with parameters including Dm (median-effect dose), m (slope of the dose–effect curve), and r (linear correlation coefficient). To characterize the interaction at different effect levels, CI values were determined for the following effective doses: ED50, ED75, and ED90, corresponding to 50%, 75%, and 90% inhibition of cell viability, respectively. Interactions were interpreted as synergistic when CI < 1, additive when CI = 1, and antagonistic when CI > 1. Additionally, the dose reduction index (DRI) was calculated to estimate the amount of dose reduction that could be achieved for each drug in combination while maintaining the same level of efficacy; […]

[4] = test system: L. infantum axenic amastigotes; assay: In vitro leishmanicidal activity (MTT) in axenic amastigote forms; assay type: cell-based, Leishmania infantum; details: for pIC50: axenic amastigotes, 24 h treatment, MTT
Procedure: as §2, §3

[5] = at the highest concentration, 72 h
[6] = at the lowest doses / lower concentrations, 72 h

dose reduction index (DRI) at IC50 [3] | SMILES | CC50 at 24 h [1] [µM] | pIC50 ([2]; Leishmania infantum) | pIC50 ([4]; Leishmania infantum) | hemolytic activity (in words) (human erythrocytes) | viability at 24 h, 250 µM ([1]; read-out: PBMC viability) [%] | viability at 24 h, 500 µM ([1]; read-out: PBMC viability) [%] | promastigote viability [2, 5] [%] | promastigote viability [2, 6] [%] | other results
2.87 | C[C@@H]1[C@H](O)[C@@H](C)/C=C/C=C/C=C/C=C/C=C/C=C/C=C/[C@H](O[C@@H]2O[C@H](C)[C@@H](O)[C@H](N)[C@@H]2O)C[C@@H]2O[C@](O)(C[C@@H](O)C[C@@H](O)[C@H](O)CC[C@@H](O)C[C@@H](O)CC(=O)O[C@H]1C)C[C@H](O)[C@H]2C(=O)O [AmB, Amphotericin B, reference compound] | 29.9 | 6.06 | 6.05 |  |  |  |  |  | 50% hemolytic concentration (HC50) (human erythrocytes; 5% erythrocytes, 1 h, 37 °C): 193.4 µM; CC50 (human PBMCs; PBMCs, 24 h, MTT): 29.9 µM; viability at 24 h, 25 µM ([1]; at 25 μM, read-out: PBMC viability): 61.9%; viability at 24 h, 50 µM ([1]; at 50 μM, read-out: PBMC viability): 40.8%; viability at 24 h, 100 µM ([1]; at 100 μM, read-out: PBMC viability): 30.4%
 | Cc1ccc(C(=O)/C=C/c2ccc(OCC(=O)NC3CCCCC3)cc2)cc1 [Compound 4a, (E)-N-Cyclohexyl-2-(4-(3-oxo-3-p-tolylprop-1-enyl)phenoxy)acetamide] | 157 | 4.89 | 4.71 | no hemolytic activity | 33 | 33.4 | 20.77 | 100 | viability at 24 h, 125 µM ([1]; at 125 μM, read-out: PBMC viability): 61.2%; viability at 12.5 µM ([4]; Leishmania infantum, at 12.5 µM, 24 h): 80.2%; viability at 25 µM ([4]; Leishmania infantum, at 25 µM, 24 h): 30.8%; viability at 50 µM ([4]; Leishmania infantum, at 50 µM, 24 h): 23.5%
1.28 | COc1ccc(C(=O)/C=C/c2ccc(OCC(=O)NC3CCCCC3)cc2)cc1 [Compound 4b, (E)-N-Cyclohexyl-2-(4-(3-(4-methoxyphenyl)-3-oxoprop-1-enyl)phenoxy)acetamide] | 505 | 5.15 | 5.47 | no hemolytic activity | 65.1 | 55.2 |  |  | PBMC cytotoxicity versus negative controls (in words) (human PBMCs; 25–100 μM): negligible cytotoxicity; viability at 24 h, 1000 µM ([1]; at 1000 μM, read-out: PBMC viability): 31.8%; viability at 3.12 µM ([2]; Leishmania infantum, at 3.12 µM, 72 h): 79.3%; viability at 6.25 µM ([2]; Leishmania infantum, at 6.25 µM, 72 h): 34.2%; viability at 12.5 µM ([2]; Leishmania infantum, at 12.5 µM, 72 h): 24.3%; viability at 1.56 µM ([4]; Leishmania infantum, at 1.56 µM, 24 h): 85.5%; viability at 3.12 µM ([4]; Leishmania infantum, at 3.12 µM, 24 h): 60.8%; viability at 6.25 µM ([4]; Leishmania infantum, at 6.25 µM, 24 h): 9.12%
 | O=C(COc1ccc(/C=C/C(=O)c2ccc(Br)cc2)cc1)NC1CCCCC1 [Compound 4c, (E)-2-(4-(3-(4-Bromophenyl)-3-oxoprop-1-enyl)phenoxy)-N-cyclohexylacetamide] |  | 4.34 |  |  |  |  | 21.93 | 100 | activity against amastigotes (in words) ([4]; 24 h): no detectable activity; also recorded: no inhibitory effect
